Data on five compounds can be found in US20240207427A1, “SELECTIVE DRUG RELEASE FROM INTERNALIZED CONJUGATES OF BIOLOGICALLY ACTIVE COMPOUNDS” (priority 2021, published 2024).

Read-outs that look alike come from different tables or passages of the source.

Format in all cases: cell-based
Assay [1] concerns B-lymphocyte cancer cells (SU-DHL4). The assay is described as follows: In vitro potency (CellTiter-Glo, 96 h), SU-DHL-4. The settings on record: Homo sapiens, SU-DHL-4, 96 h. An outline of the steps:
(§1)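 Cells in log-phase growth seeded 24 h in RPMI 1640 with 20% FBS, then exposed to serially diluted ADC or CPT free drug for 96 h at 37 °C. Growth inhibition read by CellTiter-Glo luminescence; IC50 reported in ng/mL or nmol/L.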
(In general: In ATP-based viability assays light output follows the ATP content of the culture.)

The test system of assay [2] is acute myeloid leukemia cells (MOLM-13). In words: In vitro potency (CellTiter-Glo, 96 h), MOLM-13. As to conditions: Homo sapiens, MOLM-13, 96 h. An outline of the steps:
(§2)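 Antibody-drug conjugates, prepared as dilution series in culture medium, were added to cells seeded a day earlier in RPMI 1640 supplemented with 20% FBS. After four days at 37 °C, luminescence measured growth inhibition.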

For assay [3], the system named is anaplastic large cell lymphoma cells (DELBVR). The assay is described as follows: In vitro potency (CellTiter-Glo, 96 h), DELBVR. An outline of the steps:
(§3)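 Medium: RPMI 1640 + 20% FBS. Pre-seeding: 24 h. Treatment: ADC or CPT free drug serial dilutions, 96 h, 37 °C. Read-out: luminescence; IC50 in ng/mL and nmol/L.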

Assay [4] has as its system pancreatic cancer cells (BxPC3). The assay is described as follows: In vitro potency (CellTiter-Glo, 96 h), BxPC3. As to conditions: Homo sapiens, BXPC-3, 96 h. The gist of the method:
as §2

In assay [5] the test system is Hodgkin's lymphoma cells (L540cy). In words: In vitro potency (CellTiter-Glo, 96 h), L540cy. The gist of the method:
as §3

For assay [6], the system named is non-small-cell lung cancer cells (Calu1). The assay is described as follows: In vitro potency (CellTiter-Glo, 96 h), Calu1. As to conditions: Homo sapiens, Calu-1, 96 h. How it is done: (§4) In vitro potency was assessed on multiple cancer cell lines. All cell lines were authenticated by STR profiling at IDEXX Bioresearch and cultured for no more than 2 months after resuscitation. Cells cultured in log-phase growth were seeded for 24 hours in 96-well plates containing […] RPMI 1640 supplemented with 20% FBS. Serial dilutions of antibody-drug conjugates in cell culture media were prepared at 4× working concentrations, and 50 μL of each dilution was added to the 96-well plates. Following addition of test articles, cells were incubated with test articles for 4 days at 37 0° C. After 96 hours, growth inhibition was assessed by CellTiterGlo® (Promega, Madison, WI) and luminescence was measured on a plate reader.
(§5) In Table 7, IC50 values for ADCs are given in ng/mL. Cell viability was determined by CellTiter-Glo staining after 96 h exposure to ADC. ND=Not Determined. Ag2 is an antibody targeting a ubiquitous and readily internalizable antigen. The cancer cell lines tested are renal carcinoma cells (786-0), melanoma cells (A2058), pancreatic cancer cells (BxPC3), non-small-cell lung cancer cells (Calu1), anaplastic large cell lymphoma cells (DEL, DELBVR, Karpas299), Hodgkin's lymphoma cells (L540cy), (Ls174T), breast cancer cells (MDA-MB-231), acute myeloid leukemia cells (MOLM-13), and B-lymphocyte cancer cells (SU-DHL4).
(§6) In vitro potency was assessed on multiple cancer cell lines. All cell lines were authenticated by STR profiling at IDEXX Bioresearch and cultured for no more than 2 months after resuscitation. Cells cultured in log-phase growth were seeded for 24 hours in 96-well plates containing […] RPMI 1640 supplemented with 20% FBS. Following addition of test articles, cells were incubated with test articles for 4 days at 37 0° C. After 96 hours, growth inhibition was assessed by CellTiterGlo® (Promega, Madison, WI) and luminescence was measured on a plate reader.
(§7) Cell viability was determined by CellTiter-Glo staining after 96 h exposure to the compound. ND=Not Determined. The cancer cell lines tested are renal carcinoma cells (786-0), melanoma cells (A2058), pancreatic cancer cells (BxPC3), non-small-cell lung cancer cells (Calu1), anaplastic large cell lymphoma cells (DEL, DELBVR, Karpas299), Hodgkin's lymphoma cells (L540cy), (Ls 174T), breast cancer cells (MDA-MB-231), acute myeloid leukemia cells (MOLM-13), B-lymphocyte cancer cells (SU-DHL4), multiple myeloma cells (MM.1R), (U266), and melanoma cells (SK-MEL-5).
as §4, with “37°” for “37 0°”
(§8) In the following Tables IC50 values for ADCs and CPT free drugs are given in ng/mL and nmol/L concentrations. Cell viability was determined by CellTiter-Glo staining after 96 h exposure to ADC or CPT free drug.
(§9) Cell viability was determined by CellTiter-Glo staining after 96 h exposure to ADC. ND=Not Determined.

The subject of assay [7] is melanoma cells (A2058). In words: In vitro potency (CellTiter-Glo, 96 h), A2058. The settings on record: Homo sapiens, A2058, 96 h. The procedure:
as §4, §5, §6, §7
as §4, with “37°” for “37 0°”
as §8, §9

In assay [8] the test system is anaplastic large cell lymphoma cells (DEL). The assay is described as follows: In vitro potency (CellTiter-Glo, 96 h), DEL. An outline of the steps:
as §1

The subject of assay [9] is renal carcinoma cells (786-O). In words: In vitro potency (CellTiter-Glo, 96 h), 786-O. As to conditions: Homo sapiens, 786-0, 96 h. The gist of the method: as §3
Assay [10] relates to anaplastic large cell lymphoma cells (Karpas299). The assay is described as follows: In vitro potency (CellTiter-Glo, 96 h), Karpas299. As to conditions: Homo sapiens, KARPAS-299, 96 h. An outline of the steps:
as §3

The subject of assay [11] is breast cancer cells (MDA-MB-231). The assay is described as follows: In vitro potency (CellTiter-Glo, 96 h), MDA-MB-231. The settings on record: Homo sapiens, MDA-MB-231, 96 h. The gist of the method:
as §3

Assay [12] has as its system Ls174T cells. In words: In vitro potency (CellTiter-Glo, 96 h), Ls174T. The settings on record: Homo sapiens, LS174T, CPT free drugs. An outline of the steps:
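Four-day continuous exposure at 37 °C to serially diluted ADC or free camptothecin payload, in RPMI 1640 with 20% FBS after 24 h pre-plating. Luminescent signal gave IC50 (ng/mL; nmol/L).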

Setting [13] is: CPT free drugs, Table 24, CellTiter-Glo after 96 h exposure, read-out: IC50 (nmol/L) SU-DHL-4.
The mark [14] stands for this setting: CPT free drugs, Table 24, CellTiter-Glo after 96 h exposure, read-out: IC50 (nmol/L) MOLM-13.
The mark [15] stands for this setting: CPT free drugs, Table 24, CellTiter-Glo after 96 h exposure, read-out: IC50 (nmol/L) DELBVR.
[16] abbreviates: CPT free drugs, Table 24, CellTiter-Glo after 96 h exposure, read-out: IC50 (nmol/L) BxPC3.
[17] abbreviates: CPT free drugs, Table 24, CellTiter-Glo after 96 h exposure, read-out: IC50 (nmol/L) L540cy.
Setting [18] is: CPT free drugs, Table 24, CellTiter-Glo after 96 h exposure, read-out: IC50 (nmol/L) Calu1.
[19] abbreviates: CPT free drugs, Table 24, CellTiter-Glo after 96 h exposure, read-out: IC50 (nmol/L) A2058.
Setting [20] is: CPT free drugs, Table 24, CellTiter-Glo after 96 h exposure, read-out: IC50 (nmol/L) DEL.
The mark [21] stands for this setting: CPT free drugs, Table 24, CellTiter-Glo after 96 h exposure, read-out: IC50 (nmol/L) 786-O.
[22] abbreviates: CPT free drugs, Table 24, CellTiter-Glo after 96 h exposure, read-out: IC50 (nmol/L) Karpas299.
[23] abbreviates: CPT free drugs, Table 24, CellTiter-Glo after 96 h exposure, read-out: IC50 (nmol/L) MDAMB231.

Consider `CC[C@@]1(O)C(=O)OCc2c1cc1n(c2=O)Cc2c-1nc1ccccc1c2CN` [Compound 2ae], for which the IC50 in assay [1] (setting [13]) turned out to be 8 nmol/L; in [2] (setting [14]) it was 191 nmol/L; in assay [3] (setting [15]), 5 nmol/L; in assay [4] (setting [16]), 23 nmol/L; in assay [5] (setting [17]), 6 nmol/L; in assay [6] (setting [18]), 65 nmol/L. Also, the IC50 in assay [7] (setting [19]) was 5 nmol/L; in assay [8] (setting [20]) it was 5 nmol/L; in assay [9] (setting [21]) it was 17 nmol/L; in assay [10] (setting [22]), 14 nmol/L; in assay [11] (setting [23]), 107 nmol/L.
For `CC[C@@]1(O)C(=O)OCc2c1cc1n(c2=O)Cc2c-1nc1cc3c(cc1c2CN)OCCO3` [Compound 2af], the IC50 in [1] (read-out: IC50 (nmol/L) SU-DHL-4, CPT free drugs, Table 24, CellTiter-Glo after 96 h exposure) worked out at 2 nmol/L; in assay [2] (read-out: IC50 (nmol/L) MOLM-13, CPT free drugs, Table 24, CellTiter-Glo after 96 h exposure), 32 nmol/L; in assay [3] (read-out: IC50 (nmol/L) DELBVR, CPT free drugs, Table 24, CellTiter-Glo after 96 h exposure), 1 nmol/L; in [4] (read-out: IC50 (nmol/L) BxPC3, CPT free drugs, Table 24, CellTiter-Glo after 96 h exposure) it was 7 nmol/L; in assay [5] (read-out: IC50 (nmol/L) L540cy, CPT free drugs, Table 24, CellTiter-Glo after 96 h exposure), 3 nmol/L; in [6] (read-out: IC50 (nmol/L) Calu1) it was 57 nmol/L. For the same compound, the IC50 in assay [7] (read-out: IC50 (nmol/L) A2058) amounted to 2 nmol/L; in [8] (read-out: IC50 (nmol/L) DEL, CPT free drugs, Table 24, CellTiter-Glo after 96 h exposure) it was 1 nmol/L; in [9] (read-out: IC50 (nmol/L) 786-O, CPT free drugs, Table 24, CellTiter-Glo after 96 h exposure) it was 7 nmol/L; in assay [10] (read-out: IC50 (nmol/L) Karpas299, CPT free drugs, Table 24, CellTiter-Glo after 96 h exposure) it was 6 nmol/L; in [11] (read-out: IC50 (nmol/L) MDAMB231, CPT free drugs, Table 24, CellTiter-Glo after 96 h exposure), 39 nmol/L.
Turning to `CC[C@@]1(O)C(=O)OCc2c1cc1n(c2=O)Cc2c-1nc1ccc3c(c1c2CN)OCCO3` [Compound 2ag], the IC50 in assay [1] (setting [13]) is 16 nmol/L; in [2] (setting [14]), 63 nmol/L; in [3] (setting [15]) it was 13 nmol/L; in [4] (setting [16]), 57 nmol/L; in assay [5] (setting [17]), 15 nmol/L; in assay [6] (setting [18]) it was 153 nmol/L. In addition, the IC50 in assay [7] (setting [19]) is 10 nmol/L; in assay [8] (setting [20]), 6 nmol/L; in [9] (setting [21]), 35 nmol/L; in assay [10] (setting [22]), 34 nmol/L; in assay [11] (setting [23]) it was 177 nmol/L.
For `[2H]C1([2H])Oc2cc3nc4c(c(CN)c3cc2O1)Cn1c-4cc2c(c1=O)COC(=O)[C@]2(O)CC` [Compound 2an], the IC50 in [1] (setting [13]) turned out to be 1 nmol/L; in assay [2] (setting [14]), 4 nmol/L; in assay [3] (setting [15]) it was 0.2 nmol/L; in assay [4] (setting [16]) it was 1 nmol/L; in assay [6] (setting [18]), 1 nmol/L; in assay [7] (setting [19]), 0.5 nmol/L. Further, the IC50 amounted to 0.2 nmol/L in assay [8] (setting [20]); 1 nmol/L in assay [9] (setting [21]); 1 nmol/L in [10] (setting [22]); 1 nmol/L in assay [11] (setting [23]); 6 nmol/L in assay [12] (Table 24, CellTiter-Glo after 96 h exposure, read-out: IC50 (nmol/L) Ls174T).
For `CC[C@@]1(O)C(=O)OCc2c1cc1n(c2=O)Cc2c-1nc1cc3c(c(Br)c1c2CN)OCO3` [Compound 5c], the IC50 was 0.5 nmol/L in assay [1] (read-out: SU-DHL-4 IC50, Table 28, CPT free drugs, B-lymphocyte cancer cells SU-DHL4, 96 h, CellTiter-Glo); 2 nmol/L in assay [2] (read-out: MOLM-13 IC50, Table 28, CPT free drugs, acute myeloid leukemia cells MOLM-13, 96 h, CellTiter-Glo); 8 nmol/L in [4] (read-out: BxPC3 IC50, Table 28, CPT free drugs, pancreatic cancer cells BxPC3, 96 h, CellTiter-Glo); 0.8 nmol/L in [5] (read-out: L540cy IC50, Table 28, CPT free drugs, Hodgkin's lymphoma cells L540cy, CellTiter-Glo); 4 nmol/L in assay [6] (read-out: Calu1 IC50); 5 nmol/L in assay [7] (read-out: A2058 IC50). In addition, the IC50 in assay [8] (read-out: DEL IC50, Table 28, CPT free drugs, anaplastic large cell lymphoma cells DEL, CellTiter-Glo) worked out at 0.3 nmol/L; in assay [9] (read-out: 786-O IC50, Table 28, CPT free drugs, renal carcinoma cells 786-O, 96 h, CellTiter-Glo) it was 1 nmol/L; in assay [10] (read-out: Karpas299 IC50, Table 28, CPT free drugs, anaplastic large cell lymphoma cells Karpas299, 96 h, CellTiter-Glo) it was 1 nmol/L; in [11] (read-out: MDAMB231 IC50, Table 28, CPT free drugs, breast cancer cells MDA-MB-231, 96 h, CellTiter-Glo) it was 2 nmol/L; in assay [12] (96 h, read-out: Ls174T IC50, Table 28, Ls174T cells, 96 h, CellTiter-Glo), 6 nmol/L.
